Patent US10815540B2, “Treatments to eliminate HIV reservoirs and reduce viral load” (INSTITUT PASTEUR, priority 2017, dated 2020)
Where two headings read alike, the source gives them in different places.

Key:
[1] = system: HLA-E restricted (NKG2A/C+) NK cells; details: at around day 25, chronically SIV-infected GA treated macaques, versus 20%
[2] = system: CD32a^high CD4 T cells expressing HLA-E; details: spleen, 2 macaques treated with GA
Excerpt: FIG. 10A) Flow cytometry dot plots. CD32a^highHLA-E^+ CD4^+ T cells from AGM and macaques are shown in blue. […] MAC=macaque.

[3] = MS patients treated with GA for >10 years; cited from earlier work
[4] = system: HLA-E restricted CD8 T cells; details: at euthanasia, GA treated animal versus chronically SIV infected AGM
[5] = system: pathogenic CD4 T cells; details: in vivo; cited from earlier work
[6] = system: HLA-E restricted CD8 T cells; details: at around day 25, chronically SIV-infected GA treated macaques, versus 20%
[7] = system: SIVmac251; details: two weeks treatment with GA, in less than 2 months, chronic SIV infection, no anti-retroviral therapy, pilot study with 2 animals
Procedure: Correlation between the plasma viral load and the classical CD8 T cells (FIG. 9B) and with the HLA-E restricted CD8 T cells (FIG. 9C) were evaluated. The Spearman coefficients (r) and p-values are indicated.

[8] = system: HLA-E on CD4 T cells
Excerpt: Follow-up of the percentage of CD4 T cells expressing MHC-E on their surface (FIG. 7D).

L-glutamic acid polymer with L-alanine, L-lysine and L-tyrosine, acetate (salt) [GA]
CD107a on NK cells [1]: 60% | effect on latently infected cells (CD32a^high CD4 T) [2]: targets CD32a^high CD4 T cells expressing HLA-E | efficacy [3]: long-term efficacy | levels of HLA-E restricted CD8 T cells in the intestine [4]: comparable levels or even higher to those in AGM | efficacy in mouse model of inflammatory bowel diseases [5]: efficient | CD107a on HLA-E restricted CD8 T cells [6]: 60% | decrease of viremia [7]: ≤ 2 logs | expression of HLA-E on CD4 T cells ([8]; animal the most advanced in disease, no HLA-E before treatment, continued to increase after treatment cessation): increase HLA-E levels | expression of HLA-E on CD4 T cells ([8]; animal with already very high expression before treatment): remained as high
